T/C data for 29 compounds are collected here from PubChem BioAssay AID256 (DTP/NCI, 2004).

In the test the test system is CD2F1 mice, L1210 leukemia ip, survival T/C. The test can be described thus: NCI In Vivo Anticancer Drug Screen. Data for tumor model L1210 Leukemia (intraperitoneal) in CD2F1 (CDF1) mice. To be noted: higher = longer survival. In a few lines: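 Vehicle-treated tumor-bearing mice served as controls (C) for compound-treated mice (T). Reported figure is T divided by C.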

[1] abbreviates: endpoint: mean survival time, dose: 100.0 mg/kg/injection, schedule: Q01DX001 (ip), vehicle: saline.
[2] abbreviates: endpoint: mean survival time, dose: 100.0 mg/kg/injection, schedule: Q01DX009 (ip), vehicle: saline with Tween-80.
The mark [3] stands for this setting: endpoint: mean survival time, dose: 200.0 mg/kg/injection, schedule: Q01DX009 (ip), vehicle: saline with Tween-80.
The mark [4] stands for this setting: endpoint: mean survival time, dose: 400.0 mg/kg/injection, schedule: Q01DX009 (ip), vehicle: saline with Tween-80.
The mark [5] stands for this setting: endpoint: mean survival time, dose: 100.0 mg/kg/injection, schedule: Q04DX003 (ip), vehicle: saline with Tween-80.
The mark [6] stands for this setting: endpoint: mean survival time, dose: 200.0 mg/kg/injection, schedule: Q04DX003 (ip), vehicle: saline with Tween-80.
The mark [7] stands for this setting: endpoint: mean survival time, dose: 400.0 mg/kg/injection, schedule: Q04DX003 (ip), vehicle: saline with Tween-80.
[8] abbreviates: endpoint: mean survival time, dose: 50.0 mg/kg/injection, schedule: Q01DX009 (ip), vehicle: saline with Tween-80.
Setting [9] is: endpoint: mean survival time, dose: 50.0 mg/kg/injection, schedule: Q04DX003 (ip), vehicle: Klucel (hydroxypropylcellulose) (HPC).
The mark [10] stands for this setting: endpoint: mean survival time, dose: 75.0 mg/kg/injection, schedule: Q01DX001 (ip), vehicle: saline.
Setting [11] is: endpoint: mean survival time, dose: 150.0 mg/kg/injection, schedule: Q01DX001 (ip), vehicle: saline.
Where [12] appears, read: endpoint: mean survival time, dose: 300.0 mg/kg/injection, schedule: Q01DX001 (ip), vehicle: saline.

Several values for one entry are separate records, joined by “and”; a condition that tells them apart may be missing. Identical values can stand only once. Toxic doses and inconclusive results are not listed.

As to `O=C(CCl)NCCCCNC(=O)CCl`, the T/C is, setting by setting: under setting [1], 101 % of control; (endpoint: mean survival time, dose: 200.0 mg/kg/injection, schedule: Q01DX001 (ip), vehicle: saline) 98 % of control; (endpoint: mean survival time, dose: 400.0 mg/kg/injection, schedule: Q01DX001 (ip), vehicle: saline) 100 % of control.
Turning to `N#CC(C#N)=NNc1ccc(S(=O)(=O)O)cc1`, the T/C was 93 % of control (endpoint: mean survival time, dose: 100.0 mg/kg/injection, schedule: Q01DX009 (ip), vehicle: saline); 95 % of control (endpoint: mean survival time, dose: 200.0 mg/kg/injection, schedule: Q01DX009 (ip), vehicle: saline); 95 % of control (endpoint: mean survival time, dose: 400.0 mg/kg/injection, schedule: Q01DX009 (ip), vehicle: saline).
Take `CCCCCCCCN(C)Cc1cc(C(C)(C)C)cc(-c2ccccc2)c1O`: the T/C is 96 % of control under setting [2], 96 % of control under setting [3] and 96 % of control under setting [4].
In the case of `CC(C)COC(=N)c1ccccc1C1(O)CCCCC1`, the T/C (endpoint: mean survival time, dose: 50.0 mg/kg/injection, schedule: Q04DX002 (ip), vehicle: saline with Tween-80) was 91 % of control; the T/C (endpoint: mean survival time, dose: 100.0 mg/kg/injection, schedule: Q04DX002 (ip), vehicle: saline with Tween-80) is 88 % of control; the T/C under setting [5] is 98 % of control; the T/C (endpoint: mean survival time, dose: 200.0 mg/kg/injection, schedule: Q04DX002 (ip), vehicle: saline with Tween-80) was 100 % of control; the T/C under setting [6] is 92 % of control.
Regarding `Cc1nc(N)[nH]c(=O)c1CCCNCc1ccncc1`, the T/C (endpoint: mean survival time, dose: 100.0 mg/kg/injection, schedule: Q01DX001 (ip), vehicle: saline with Tween-80) is 87 % of control; the T/C (endpoint: mean survival time, dose: 200.0 mg/kg/injection, schedule: Q01DX001 (ip), vehicle: saline with Tween-80) was 91 % of control; the T/C (endpoint: mean survival time, dose: 400.0 mg/kg/injection, schedule: Q01DX001 (ip), vehicle: saline with Tween-80) was 90 % of control.
On to `NCCc1ccccn1`, for which the T/C is, setting by setting: under setting [5], 96 % of control; under setting [6], 101 % of control.
Turning to `N#CCCC(CCC#N)c1ccccc1`, the T/C was 107 % of control under setting [2]; 106 % of control under setting [5]; 103 % of control under setting [3]; 93 % of control under setting [6]; 105 % of control under setting [4]; 104 % of control under setting [7].
In the case of `O=[N+]([O-])O`, the T/C was 86 % of control under setting [8] and 86 % of control under setting [2].
Turning to `N#CC1(C#N)OC1(C#N)c1ccccc1` (centres undefined), the T/C is, setting by setting: (endpoint: mean survival time, dose: 3.0 mg/kg/injection, schedule: Q01DX009 (ip), vehicle: saline with Tween-80) 101 % of control; (endpoint: mean survival time, dose: 6.25 mg/kg/injection, schedule: Q01DX001 (ip), vehicle: saline with Tween-80) 95 % of control; (endpoint: mean survival time, dose: 12.0 mg/kg/injection, schedule: Q01DX009 (ip), vehicle: saline with Tween-80) 98 % of control.
For the compound `COc1cc(OC)c(NC(=O)N2CCN(C)CC2)cc1Cl`, the T/C by setting is: under setting [8], 88 % of control; under setting [2], 94 % of control.
As for `O=C(O)C(O)C(O)C(O)C(O)CO.[NH-]C1CCCCC1[NH-].[Pt+2]` (centres undefined), the T/C by setting is: (endpoint: mean survival time, dose: 6.25 mg/kg/injection, schedule: Q04DX003 (ip), vehicle: saline) 150 % of control and 290 % of control; (endpoint: mean survival time, dose: 12.5 mg/kg/injection, schedule: Q04DX003 (ip), vehicle: saline) 230 % of control and 277 % of control; (endpoint: mean survival time, dose: 25.0 mg/kg/injection, schedule: Q04DX003 (ip), vehicle: saline) 244 % of control and 314 % of control.
`CCOC(=O)Cc1cnc(SC)[nH]c1=O`: the T/C is, setting by setting: under setting [9], 111 % of control; (endpoint: mean survival time, dose: 100.0 mg/kg/injection, schedule: Q04DX003 (ip), vehicle: Klucel (hydroxypropylcellulose) (HPC)) 106 % of control; (endpoint: mean survival time, dose: 200.0 mg/kg/injection, schedule: Q04DX003 (ip), vehicle: Klucel (hydroxypropylcellulose) (HPC)) 106 % of control; (endpoint: mean survival time, dose: 600.0 mg/kg/injection, schedule: Q04DX003 (ip), vehicle: Klucel (hydroxypropylcellulose) (HPC)) 100 % of control.
Regarding `CN(C)CCC(=O)c1ccco1`, the T/C was 104 % of control (endpoint: mean survival time, dose: 25.0 mg/kg/injection, schedule: Q01DX001 (ip), vehicle: saline); 95 % of control (endpoint: mean survival time, dose: 50.0 mg/kg/injection, schedule: Q01DX001 (ip), vehicle: saline); 97 % of control and 103 % of control under setting [1].
Take `Cc1ccc(S(=O)(=O)NC(Cc2ccccc2)C(=O)CCl)cc1` (centres undefined): the T/C by setting is: under setting [8], 92 % of control; under setting [2], 96 % of control; under setting [3], 90 % of control.
Take `C[Si](C)(C)C1([Si](C)(C)C)SCCCS1`: the T/C is, setting by setting: (endpoint: mean survival time, dose: 50.0 mg/kg/injection, schedule: Q01DX009 (ip), vehicle: other) 105 % of control; (endpoint: mean survival time, dose: 100.0 mg/kg/injection, schedule: Q01DX009 (ip), vehicle: other) 105 % of control; (endpoint: mean survival time, dose: 200.0 mg/kg/injection, schedule: Q01DX009 (ip), vehicle: other) 102 % of control.
In the case of `Nc1nc2c(nc(Br)n2C2OC(CO)C(O)C2O)c(=O)[nH]1` (centres undefined), the T/C reads like this: under setting [5], 98 % of control; under setting [6], 102 % of control; under setting [7], 94 % of control.
Consider `Nc1ccc2[nH]c(-c3ccc(S(=O)(=O)F)cc3)cc(=O)c2c1`, for which the T/C by setting is: under setting [2], 102 % of control; under setting [3], 106 % of control; under setting [4], 113 % of control.
Take `CC(=O)Nc1cccc2ccc3c4ccccc4ccc3c12`: the T/C is, setting by setting: under setting [5], 86 % of control; under setting [6], 89 % of control; under setting [7], 98 % of control.
With `CCOC(=O)CC(=O)C(F)(F)F`, the T/C is 95 % of control under setting [10], 97 % of control under setting [11] and 101 % of control under setting [12].
In the case of `CCCCN=C1C(=O)Nc2ccccc21`, the T/C by setting is: under setting [10], 98 % of control; under setting [11], 97 % of control; under setting [12], 95 % of control.
`Cn1c(=O)[nH]c2nc(-c3ccccc3)[nH]c2c1=O`: the T/C is, setting by setting: (endpoint: mean survival time, dose: 12.5 mg/kg/injection, schedule: Q01DX005 (ip), vehicle: other) 89 % of control; (endpoint: mean survival time, dose: 25.0 mg/kg/injection, schedule: Q01DX005 (ip), vehicle: other) 87 % of control; (endpoint: mean survival time, dose: 50.0 mg/kg/injection, schedule: Q01DX005 (ip), vehicle: other) 86 % of control; (endpoint: mean survival time, dose: 100.0 mg/kg/injection, schedule: Q01DX005 (ip), vehicle: other) 86 % of control; (endpoint: mean survival time, dose: 200.0 mg/kg/injection, schedule: Q01DX005 (ip), vehicle: other) 87 % of control.
As for `COc1ccc(/C=C/C(=O)c2ccc(OC)c(OC)c2)cc1OC`, the T/C was 96 % of control under setting [5], 101 % of control under setting [6] and 98 % of control under setting [7].
Take `Cn1c(=S)sc2ccccc21`: the T/C (endpoint: mean survival time, dose: 25.0 mg/kg/injection, schedule: Q04DX003 (ip), vehicle: Klucel (hydroxypropylcellulose) (HPC)) is 101 % of control; the T/C under setting [9] is 109 % of control; the T/C under setting [5] is 110 % of control.
For `O=C(CCCN1CCC(O)CC1)c1ccccc1`, the T/C was 88 % of control under setting [8] and 94 % of control under setting [2].
With `CC(=O)/C(=C\c1ccc(/C=C(\C(C)=O)C(=O)CCN(C)C)cc1)C(=O)CCN(C)C`, the T/C (endpoint: median survival time, dose: 25.0 mg/kg/injection, schedule: Q01DX005 (ip), vehicle: saline with Tween-80) was 102 % of control; the T/C (endpoint: median survival time, dose: 50.0 mg/kg/injection, schedule: Q01DX005 (ip), vehicle: saline with Tween-80) is 102 % of control; the T/C (endpoint: median survival time, dose: 100.0 mg/kg/injection, schedule: Q01DX005 (ip), vehicle: saline with Tween-80) is 101 % of control; the T/C (endpoint: median survival time, dose: 200.0 mg/kg/injection, schedule: Q01DX005 (ip), vehicle: saline with Tween-80) was 98 % of control; the T/C (endpoint: median survival time, dose: 400.0 mg/kg/injection, schedule: Q01DX005 (ip), vehicle: saline with Tween-80) was 102 % of control.
With `CCC(C)NCCO` (centres undefined), the T/C by setting is: under setting [10], 96 % of control; under setting [11], 104 % of control; under setting [12], 104 % of control.
For the compound `CCN(CC)CC(C)(C)C(=O)/C=C/c1ccc(/C=C/C(=O)C(C)(C)CN(CC)CC)cc1`, the T/C by setting is: (endpoint: median survival time, dose: 3.75 mg/kg/injection, schedule: Q01DX005 (ip), vehicle: saline) 98 % of control; (endpoint: median survival time, dose: 7.5 mg/kg/injection, schedule: Q01DX005 (ip), vehicle: saline) 107 % of control; (endpoint: median survival time, dose: 15.0 mg/kg/injection, schedule: Q01DX005 (ip), vehicle: saline) 107 % of control; (endpoint: median survival time, dose: 30.0 mg/kg/injection, schedule: Q01DX005 (ip), vehicle: saline) 116 % of control.
For `[Br][Ge]([c]1ccccc1)([c]1ccccc1)[c]1ccccc1`, the T/C reads like this: under setting [8], 91 % of control; under setting [2], 91 % of control; under setting [3], 86 % of control.
Take `CCOC(=O)C1C=CCCC1` (centres undefined): the T/C is 97 % of control under setting [2], 103 % of control under setting [3] and 95 % of control under setting [4].
